Reference: patent US20160159789A1, “SUBSTITUTED PYRAZOLOPYRIDINES” (BAYER PHARMA AKTIENGESELLSCHAFT, priority 2013, published 2016)

The compounds below were run against T1, human full-length MKNK1 (Homo sapiens, UniProt Q9BUB5, T385D) (assay: MKNK1 kinase high ATP assay (TR-FRET)). Settings: high ATP (2 mM final), 15 min preincubation with enzyme, GST-MKNK1 (T344D).
T1 construct: purchased Carna Biosciences 02-145; host or cells: insect cells (baculovirus expression system)
T1 sequence (Q9BUB5 1-424 isoform Q9BUB5-2 T344D): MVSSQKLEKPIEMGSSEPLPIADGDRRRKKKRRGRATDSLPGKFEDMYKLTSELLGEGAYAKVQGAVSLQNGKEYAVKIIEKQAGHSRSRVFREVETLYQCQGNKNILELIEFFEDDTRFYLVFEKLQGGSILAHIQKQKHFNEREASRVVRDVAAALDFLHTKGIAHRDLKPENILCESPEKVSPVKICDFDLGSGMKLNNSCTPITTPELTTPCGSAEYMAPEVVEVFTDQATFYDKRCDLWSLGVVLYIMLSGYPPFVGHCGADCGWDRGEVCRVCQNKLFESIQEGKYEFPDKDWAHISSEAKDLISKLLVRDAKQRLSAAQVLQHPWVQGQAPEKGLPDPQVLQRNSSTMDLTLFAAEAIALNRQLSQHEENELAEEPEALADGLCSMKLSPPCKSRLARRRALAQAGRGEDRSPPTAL
Type: biochemical
Experimental: MKNK1-inhibitory activity at high ATP of compounds of the present invention after their preincubation with MKNK1 was quantified employing the TR-FRET-based MKNK1 high ATP assay as described in the following paragraphs.
A recombinant fusion protein of Glutathione-S-Transferase (GST, N-terminally) and human full-length MKNK1 (amino acids 1-424 and T344D of accession number BAA 19885.1), expressed in insect cells using baculovirus expression system and purified via glutathione sepharose affinity chromatography, was purchased from Carna Biosciences (product no 02-145) and used as enzyme. As substrate for the kinase reaction the biotinylated peptide biotin-Ahx-IKKRKLTRRKSLKG (C-terminus in amide form) was used, which can be purchased e.g. from the company Biosyntan (Berlin-Buch, Germany).
For the assay 50 nL of a 100 fold concentrated solution of the test compound in DMSO was pipetted into a black low volume 384 well microtiter plate (Greiner Bio-One, Frickenhausen, Germany), 2 μL of a solution of MKNK1 in aqueous assay buffer [50 mM HEPES pH 7.5, 5 mM MgCl2, 1.0 mM dithiothreitol, 0.005% (v/v) Nonidet-P40 (Sigma)] was added and the mixture was incubated for 15 min at 22° C. to allow pre-binding of the test compounds to the enzyme before the start of the kinase reaction. Then the kinase reaction was started by the addition of 3 μL of a solution of adenosine-tri-phosphate (ATP, 3.3 mM=> final conc. in the 5 μL assay volume is 2 mM) and substrate (0.1 μM=> final conc. in the 5 μL assay volume is 0.06 μM) in assay buffer and the resulting mixture was incubated for a reaction time of 30 min at 22° C. The concentration of MKNK1 was adjusted depending of the activity of the enzyme lot and was chosen appropriate to have the assay in the linear range, typical concentrations were in the range of 0.003 μg/mL. The reaction was stopped by the addition of 5 μL of a solution of TR-FRET detection reagents (5 nM streptavidine-XL665 [Cisbio Bioassays, Codolet, France] and 1 nM anti-ribosomal protein S6 (pSer236)-antibody from Invitrogen [#44921G] and 1 nM LANCE EU-W1024 labeled ProteinG [Perkin-Elmer, product no. AD0071]) in an aqueous EDTA-solution (100 mM EDTA, 0.1% (w/v) bovine serum albumin in 50 mM HEPES pH 7.5).
The resulting mixture was incubated for 1 h at 22° C. to allow the formation of complex between the phosphorylated biotinylated peptide and the detection reagents. Subsequently the amount of phosphorylated substrate was evaluated by measurement of the resonance energy transfer from the Eu-chelate to the streptavidine-XL. Therefore, the fluorescence emissions at 620 nm and 665 nm after excitation at 350 nm were measured in a TR-FRET reader, e.g. a Rubystar (BMG Labtechnologies, Offenburg, Germany) or a Viewlux (Perkin-Elmer). The ratio of the emissions at 665 nm and at […] was taken as the measure for the amount of phosphorylated substrate. The data were normalised (enzyme reaction without inhibitor=0% inhibition, all other assay components but no enzyme=100% inhibition).
With C[C@H]1COCCN1C(=O)[C@H]1CCc2c(sc3ncnc(Nc4cnc5[nH]ncc5c4)c23)C1 [Example 104, [(3S)-3-Methylmorpholin-4-yl][(7S)-4-(1H-pyrazolo[3,4-b]pyridin-5-ylamino)-5,6,7,8-tetrahydro[1]benzothieno[2,3-d]pyrimidin-7-yl]methanone] the IC50 was 28.7 nM.
For O=C(O)c1cc2c(Nc3cc4cn[nH]c4cn3)ncnc2[nH]1 [Example 11, 4-(1H-Pyrazolo[3,4-c]pyridin-5-ylamino)-7H-pyrrolo[2,3-d]pyrimidine-6-carboxylic acid], the IC50 was 24.1 nM.
Compound CN1CCN(C(=O)[C@H]2CCc3c(sc4ncnc(Nc5cc6cn[nH]c6cn5)c34)C2)CC1 [Example 90, (4-Methylpiperazin-1-yl)[(7S)-4-(1H-pyrazolo[3,4-c]pyridin-5-ylamino)-5,6,7,8-tetrahydro[1]benzothieno[2,3-d]pyrimidin-7-yl]methanone] has an IC50 of 5.2 nM.
Work on O=C(c1cc2c(Nc3cc4cn[nH]c4cn3)ncnc2[nH]1)N1CCCC1 [Example 19, [4-(1H-Pyrazolo[3,4-c]pyridin-5-ylamino)-7H-pyrrolo[2,3-d]pyrimidin-6-yl](pyrrolidin-1-yl)methanone] yielded an IC50 of 5.8 nM.
O=C(c1cc2c(Nc3cc4cn[nH]c4cn3)ncnc2[nH]1)N1CCOCC1 [Example 21, Morpholin-4-yl[4-(1H-pyrazolo[3,4-c]pyridin-5-ylamino)-7H-pyrrolo[2,3-d]pyrimidin-6-yl]methanone] gave an IC50 of 4.2 nM.
With COc1nc2[nH]ncc2cc1Nc1ncnc2sc3c(c12)CC[C@H](C(=O)N(C)CCC(F)(F)F)C3 [Example 136, (7S)-4-[(6-Methoxy-1H-pyrazolo[3,4-b]pyridin-5-yl)amino]-N-methyl-N-(3,3,3-trifluoropropyl)-5,6,7,8-tetrahydro[1]benzothieno[2,3-d]pyrimidine-7-carboxamide] the IC50 was 0.5 nM.
For COc1nc2[nH]ncc2cc1Nc1ncnc2sc3c(c12)CC[C@H](C(=O)N1CC[C@H](N(C)C)C1)C3 [Example 111, [(3S)-3-(Dimethylamino)pyrrolidin-1-yl]{(7S)-4-[(6-methoxy-1H-pyrazolo[3,4-b]pyridin-5-yl)amino]-5,6,7,8-tetrahydro[1]benzothieno[2,3-d]pyrimidin-7-yl}methanone], the IC50 was 1.3 nM.
For COc1nc2[nH]ncc2cc1Nc1ncnc2sc3c(c12)CC[C@H](C(=O)N1C[C@@H](C)O[C@@H](C)C1)C3 [Example 36, [(2R,6S)-2,6-Dimethylmorpholin-4-yl]{(7S)-4-[(6-methoxy-1H-pyrazolo[3,4-b]pyridin-5-yl)amino]-5,6,7,8-tetrahydro[1]benzothieno[2,3-d]pyrimidin-7-yl}methanone], the IC50 was 0.8 nM.
Compound CN(C)C1CCN(C(=O)c2[nH]c3ncnc(Nc4cc5cn[nH]c5cn4)c3c2Br)CC1 [Example 69, [5-Bromo-4-(1H-pyrazolo[3,4-c]pyridin-5-ylamino)-7H-pyrrolo[2,3-d]pyrimidin-6-yl][4-(dimethylamino)piperidin-1-yl]methanone] has an IC50 of 19.8 nM.
Compound CN1CCN(C(=O)[C@H]2CCc3c(sc4ncnc(Nc5cnc6[nH]ncc6c5)c34)C2)CC1 [Example 106, (4-Methylpiperazin-1-yl)[(7S)-4-(1H-pyrazolo[3,4-b]pyridin-5-ylamino)-5,6,7,8-tetrahydro[1]benzothieno[2,3-d]pyrimidin-7-yl]methanone] has an IC50 of 20.4 nM.
CN(C)C(=O)[C@H]1CCc2c(sc3ncnc(Nc4cc5cn[nH]c5cn4)c23)C1 [Example 60, (7S)—N,N-Dimethyl-4-(1H-pyrazolo[3,4-c]pyridin-5-ylamino)-5,6,7,8-tetrahydro[1]benzothieno[2,3-d]pyrimidine-7-carboxamide] gave an IC50 of 7.7 nM.
For CCc1c[nH]c2ncnc(Nc3cnc4[nH]ncc4c3)c12 [Example 5, N-(5-Ethyl-7H-pyrrolo[2,3-d]pyrimidin-4-yl)-1H-pyrazolo[3,4-b]pyridin-5-amine], the IC50 was 12.2 nM.
COc1nc2[nH]ncc2cc1Nc1ncnc2sc3c(c12)CC[C@H](C(=O)N1CC(N(C)C)C1)C3 [Example 141, [3-(Dimethylamino)azetidin-1-yl]{(7S)-4-[(6-methoxy-1H-pyrazolo[3,4-b]pyridin-5-yl)amino]-5,6,7,8-tetrahydro[1]benzothieno[2,3-d]pyrimidin-7-yl}methanone] was tested, and the IC50 was 1.2 nM.
With CN(C)C(=O)[C@H]1CCc2c(sc3ncnc(Nc4cnc5[nH]ncc5c4)c23)C1 [Example 59, (7S)—N,N-Dimethyl-4-(1H-pyrazolo[3,4-b]pyridin-5-ylamino)-5,6,7,8-tetrahydro[1]benzothieno[2,3-d]pyrimidine-7-carboxamide] the IC50 was 2.3 nM.
COc1nc2[nH]ncc2cc1Nc1ncnc2sc3c(c12)CC[C@H](C(=O)N1CCOC[C@H]1C)C3 [Example 44] gave an IC50 of 0.9 nM.
N#CC1CN(C(=O)[C@H]2CCc3c(sc4ncnc(Nc5cnc6[nH]ncc6c5)c34)C2)C1 [Example 99, 1-{[(7S)-4-(1H-Pyrazolo[3,4-b]pyridin-5-ylamino)-5,6,7,8-tetrahydro[1]benzothieno[2,3-d]pyrimidin-7-yl]carbonyl}azetidine-3-carbonitrile] was tested, and the IC50 was 14.5 nM.
c1nc(Nc2cnc3[nH]ncc3c2)c2cc[nH]c2n1 [Example 1, N-(7H-Pyrrolo[2,3-d]pyrimidin-4-yl)-1H-pyrazolo[3,4-b]pyridin-5-amine] gave an IC50 of 28.1 nM.
O=C([C@H]1CCc2c(sc3ncnc(Nc4cc5cn[nH]c5cn4)c23)C1)N1CCC1 [Example 55, Azetidin-1-yl[(7S)-4-(1H-pyrazolo[3,4-c]pyridin-5-ylamino)-5,6,7,8-tetrahydro[1]benzothieno[2,3-d]pyrimidin-7-yl]methanone] showed an IC50 of 9.7 nM.
Work on C[C@@H]1CN(C(=O)[C@H]2CCc3c(sc4ncnc(Nc5cc6cn[nH]c6cn5)c34)C2)C[C@H](C)O1 [Example 89, [(2R,6S)-2,6-Dimethylmorpholin-4-yl][(7S)-4-(1H-pyrazolo[3,4-c]pyridin-5-ylamino)-5,6,7,8-tetrahydro[1]benzothieno[2,3-d]pyrimidin-7-yl]methanone] yielded an IC50 of 5.9 nM.
For CN(C)C(=O)C1CCc2c(sc3ncnc(Nc4cc5cn[nH]c5cn4)c23)C1 (racemic) [Example 28, (RS)—N,N-Dimethyl-4-(1H-pyrazolo[3,4-c]pyridin-5-ylamino)-5,6,7,8-tetrahydro[1]benzothieno[2,3-d]pyrimidine-7-carboxamide], the IC50 was 9.8 nM.
In the case of C[C@H]1COCCN1C(=O)[C@H]1CCc2c(sc3ncnc(Nc4cc5cn[nH]c5cn4)c23)C1 [Example 87, [(3S)-3-Methylmorpholin-4-yl][(7S)-4-(1H-pyrazolo[3,4-c]pyridin-5-ylamino)-5,6,7,8-tetrahydro[1]benzothieno[2,3-d]pyrimidin-7-yl]methanone], the IC50 is reported as 10.5 nM.
In the case of CN(C)C1CCN(C(=O)[C@H]2CCc3c(sc4ncnc(Nc5cc6cn[nH]c6cn5)c34)C2)CC1 [Example 91, [4-(Dimethylamino)piperidin-1-yl][(7S)-4-(1H-pyrazolo[3,4-c]pyridin-5-ylamino)-5,6,7,8-tetrahydro[1]benzothieno[2,3-d]pyrimidin-7-yl]methanone], the IC50 is reported as 3.1 nM.
For CN(C)CCN(C)C(=O)c1cc2c(Nc3cc4cn[nH]c4cn3)ncnc2[nH]1 [Example 77, N-[2-(Dimethylamino)ethyl]-N-methyl-4-(1H-pyrazolo[3,4-c]pyridin-5-ylamino)-7H-pyrrolo[2,3-d]pyrimidine-6-carboxamide], the IC50 was 23.1 nM.
In the case of CN(C)C(=O)C1CCc2c(sc3ncnc(Nc4cnc5[nH]ncc5c4)c23)C1 (racemic) [Example 27, (RS)—N,N-Dimethyl-4-(1H-pyrazolo[3,4-b]pyridin-5-ylamino)-5,6,7,8-tetrahydro[1]benzothieno[2,3-d]pyrimidine-7-carboxamide], the IC50 is reported as 20.3 nM.
Work on CN(C)[C@@H]1CCN(C(=O)[C@H]2CCc3c(sc4ncnc(Nc5cc6cn[nH]c6cn5)c34)C2)C1 [Example 84, [(3R)-3-(Dimethylamino)pyrrolidin-1-yl][(7S)-4-(1H-pyrazolo[3,4-c]pyridin-5-ylamino)-5,6,7,8-tetrahydro[1]benzothieno[2,3-d]pyrimidin-7-yl]methanone] yielded an IC50 of 3.6 nM.
